Laboratory results from patent publication US4268505A, “Pharmaceutical composition comprising a nitrogen-containing polysaccharide and an antibiotic agent, and a method of treating an infectious disease therewith” (priority 1979, dated 1981).

Assays:
[1] = system: colistin-resistant strain of Pseudomonas aeruginosa; assay: Therapeutical test in mice infected with colistin-resistant Pseudomonas aeruginosa (Example 8); type: in vivo, male ICR-JCL mice; details: single colistin 190 mg/kg i.p., 6 days after administration
Experimental: A quarter milli-liter of a suspension of the colistin-resistant strain of Pseudomonas aeruginosa cultured by the same procedure in Example 1 in Trypto-soy bouillon (see Example 2) including 5% of mucin was intraperitoneally inoculated to each mouse of 2 groups of male ICR-JCL mice (body weight: 22±1 g, 10 mice a group) at the rate of 1×10^8 cells/mouse. […] The present substance obtained by the same procedure as in Example 6 was also orally administered at a dose of 1,500 mg/kg.

Pseudomonas aeruginosa = assay: Minimum growth inhibiting concentration, agar plate method; type: cell-based; details: for Minimum growth inhibiting concentration: strain resistant to the respective drug
Experimental: (§1) The drug-resistant strains of bacterial species were obtained in the manner described below according to the concentration gradient plate culture (see "Chemotherapeutics and Resistant Bacteria", 1970, By Chikara Watanabe, Asakura Shoten).
(§2) The agar plates with drug concentration gradient ranging from 10 to 100 μg/ml were prepared, and each strain of the bacterial species to be tested was streaked or smeared. These plates were kept at 37° C. for several days and the colony formed in the high concentration area was isolated and again similarly inoculated to the plates. Such operation was repeated several times to obtain the bacterial strains resistant to the respective drugs.
(§3) The drug sensitivity of the drug-resistant strains and that of the original strains (sensitive strains) were compared by way of the minimum growth inhibiting concentration (hereinafter abbreviated as MIC) according to the Standard Method of the Japanese Chemotherapeutical Association (see "Chemotherapy" Vol. 22, No. 6, 1126 (1974), by MIC Determination Method Reform Committee). More specifically, double diluted systems of each drug were prepared and they were mixed with the heart-infusion agar medium (Nippon Eiyo Kagaku Co., Ltd.) to form the agar plates. Then a loopful of each strain, which had been cultured at 37° C. in Trypto-soy bouillon (Nippon Eiyo Kagaku Co., Ltd.) for 18 hr. was smeared on each the plate, and after culturing for 18 hr. at 37° C., the growth of the strain on each plate was examined.
(§4) The amount of the present substance added is more than 10 μg/ml, preferably more than 100 μg/ml. The pH of the medium was maintained at 7.2±0.1 so that MIC would not be affected by pH of the medium.
(§5) Specimens of the drug-resistant bacterial strain were obtained according to the aforementioned concentration-gradient plate culture by using Staphylococcus aureus, Streptococcus faecalis, Escherichia coli, Salmonella enteritidis, Klebsiella pneumoniae and Pseudomonas aeruginosa.

Shigella sonnei = assay: as above; type: cell-based; details: for Minimum growth inhibiting concentration: strain resistant to the respective drug
Escherichia coli = assay: as above; type: cell-based; details: for Minimum growth inhibiting concentration: strain resistant to the respective drug
Experimental: as §1, §2, §3
as §4, with “MIC has apparently been reduced to half the level or less before addition of the present substance as will be seen in Table 3 of EXAMPLE 1. The amount” for “The amount”
as §5, with “aeruginosa. The MICs of the original bacterial strains and those of the bacterial strains which have developed resistance to the respective antibiotics are summarized in Table 2.” for “aeruginosa.”

[2] = system: kanamycin-resistant strain of Shigella sonnei; assay: Therapeutical treatment of mice infected with kanamycin-resistant Shigella sonnei (Example 10); type: in vivo, male ICR-JCL mice; details: only kanamycin 20 mg/kg i.p., 7th day
Experimental: Similar experiments of therapeutical treatment as in Example 9 was performed by using the present substance obtained by the procedures described in Example 1.
A kanamycin-resistant strain of Shigella sonnei obtained by the procedures described in Example 1 was intraperitoneally inoculated to the two groups (each group comprising 10 animals) of male ICR-JCL mice at a rate of 1×10^8 cells/mouse, and after 2 hours of the inoculation, 20 mg/kg of kanamycin was intraperitoneally administered to the mice of one group, and 100 mg/kg of the present substance and 20 mg/kg of kanamycin were almost simultaneously administered to the mice of another group. After keeping the mice under usual conditions for 6 days. Their rate of survival was observed on 7th day.

Enterobacter aerogenes = assay: Minimum growth inhibiting concentration, agar plate method; type: cell-based; details: for Minimum growth inhibiting concentration: strain resistant to the respective drug
Salmonella enteritidis = assay: as above; type: cell-based; details: for Minimum growth inhibiting concentration: strain resistant to the respective drug
Experimental: as §1, §2, §3
as §4, with “MIC has apparently been reduced to half the level or less before addition of the present substance as will be seen in Table 3 of EXAMPLE 1. The amount” for “The amount”
as §5, with “aeruginosa. The MICs of the original bacterial strains and those of the bacterial strains which have developed resistance to the respective antibiotics are summarized in Table 2.” for “aeruginosa.”

[3] = system: chloramphenicol-resistant strain of Salmonella enteritidis; assay: Therapeutical test in mice infected with chloramphenicol-resistant Salmonella enteritidis (Example 6); type: in vivo, male ICR-JCL mouse; details: chloramphenicol alone 50 mg/kg i.p., 5 days after administration
Experimental: The following experiment was then carried out on the present substance having the above-mentioned properties.
The chloramphenicol-resistant strain of Salmonella enteritidis were obtained as in Example 1.
A quarter milli-liter of suspension of the aforementioned chloramphenicol-resistant bacterial strain in Tryptosoy-bouillon (see Example 2) including 5% of mucin was intraperitoneally inoculated to each mouse of 5 groups of male ICR-JCL mouse, the group consisting of 10 mice. The inoculum was 1×10^8 cells/mouse. Twenty five hours after the inoculation, 50 mg/kg of chloramphenicol was administered intraperitoneally. 500 mg/kg of the present substance was further given orally to another group. The rate of survival 5 days after the administration was 40% in the group where chloramphenicol alone was administered, while it was 80% in the group where the antibiotic was given in combination with the present substance.

Staphylococcus aureus = assay: Minimum growth inhibiting concentration, agar plate method; type: cell-based; details: for Minimum growth inhibiting concentration: strain resistant to the respective drug
Experimental: as §1, §2, §3, §4, §5

Klebsiella pneumoniae = assay: as above; type: cell-based; details: for Minimum growth inhibiting concentration: strain resistant to the respective drug
Experimental: as §1, §2, §3, §4, §5

[4] = strain resistant to the respective antibiotic (Table 2)
[5] = present substance added at 1000 μg/ml
[6] = present substance not added (Table 3)
[7] = present substance added at 100 μg/ml

For Colistin [CL], the rate of survival [1] was 40%, the “Minimum growth inhibiting concentration (MIC)” value (Pseudomonas aeruginosa; [4]) was 200 µg/mL and the “Minimum growth inhibiting concentration” value (Pseudomonas aeruginosa; [5]) was 100 µg/mL. For the same compound, the “Minimum growth inhibiting concentration” value (Pseudomonas aeruginosa; [6]) was 200 µg/mL.

With `NC[C@H]1O[C@H](O[C@H]2[C@H](O)[C@@H](O[C@H]3O[C@H](CO)[C@@H](O)[C@H](N)[C@H]3O)[C@H](N)C[C@@H]2N)[C@H](O)[C@@H](O)[C@@H]1O` [KM, Kanamycin] the “Minimum growth inhibiting concentration (MIC)” value (Shigella sonnei; original strain) was 3.1 µg/mL, the “Minimum growth inhibiting concentration (MIC)” value (Shigella sonnei; [4]) was 50 µg/mL and the “Minimum growth inhibiting concentration” value (Shigella sonnei; [5]) was 12.5 µg/mL. The “Minimum growth inhibiting concentration” value (Shigella sonnei; [6]) was 50 µg/mL, the “Minimum growth inhibiting concentration (MIC)” value (Escherichia coli; original strain) was 6.3 µg/mL and the “Minimum growth inhibiting concentration (MIC)” value (Escherichia coli; [4]) was 200 µg/mL. The “Minimum growth inhibiting concentration” value (Escherichia coli; [5]) was 50 µg/mL, the “Minimum growth inhibiting concentration” value (Escherichia coli; [6]) was 200 µg/mL and the rate of survival [2] was 30%. For the same compound, the “Minimum growth inhibiting concentration (MIC)” value (Enterobacter aerogenes; original strain) was 3.1 µg/mL, the “Minimum growth inhibiting concentration (MIC)” value (Enterobacter aerogenes; [4]) was 100 µg/mL and the “Minimum growth inhibiting concentration” value (Enterobacter aerogenes; [5]) was 12.5 µg/mL. For the same compound, the “Minimum growth inhibiting concentration” value (Enterobacter aerogenes; [6]) was 100 µg/mL.

For `O=C(N[C@H](CO)[C@H](O)c1ccc([N+](=O)[O-])cc1)C(Cl)Cl` [CP, Chlorampheniocol], the “Minimum growth inhibiting concentration (MIC)” value (Salmonella enteritidis; original strain) was 0.8 µg/mL, the “Minimum growth inhibiting concentration (MIC)” value (Salmonella enteritidis; [4]) was 12.5 µg/mL and the “Minimum growth inhibiting concentration” value (Salmonella enteritidis; [7]) was 3.2 µg/mL. The “Minimum growth inhibiting concentration” value (Salmonella enteritidis; [6]) was 12.5 µg/mL, the “Minimum growth inhibiting concentration (MIC)” value (Escherichia coli; original strain) was 1.6 µg/mL and the “Minimum growth inhibiting concentration (MIC)” value (Escherichia coli; [4]) was 50 µg/mL. The “Minimum growth inhibiting concentration” value (Escherichia coli; [7]) was 12.5 µg/mL, the “Minimum growth inhibiting concentration” value (Escherichia coli; [6]) was 50 µg/mL and the rate of survival [3] was 40%. For the same compound, the “Minimum growth inhibiting concentration (MIC)” value (Staphylococcus aureus; original strain) was 3.1 µg/mL, the “Minimum growth inhibiting concentration (MIC)” value (Staphylococcus aureus; [4]) was 25 µg/mL and the “Minimum growth inhibiting concentration” value (Staphylococcus aureus; [7]) was 6.3 µg/mL. The “Minimum growth inhibiting concentration” value (Staphylococcus aureus; [6]) was 25 µg/mL, the “Minimum growth inhibiting concentration (MIC)” value (Klebsiella pneumoniae; original strain) was 0.8 µg/mL and the “Minimum growth inhibiting concentration (MIC)” value (Klebsiella pneumoniae; [4]) was 25 µg/mL. For the same compound, the “Minimum growth inhibiting concentration” value (Klebsiella pneumoniae; [7]) was 6.3 µg/mL and the “Minimum growth inhibiting concentration” value (Klebsiella pneumoniae; [6]) was 25 µg/mL.
